Test results published in ChEMBL document CHEMBL6153028, “Understanding the synergistic sensitization of natural products and antibiotics: An effective strategy to combat MRSA” (2025).

Experiments:
Format in all cases: functional
Staphylococcus aureus [1] = experiment: Synergistic antibacterial activity against methicillin-resistant Staphylococcus aureus assessed as fractional inhibitory concentration index in presence of cefoxitin
Staphylococcus aureus [2] = experiment: Synergistic antimicrobial activity against methicillin-resistant Staphylococcus aureus assessed as fractional inhibitory concentration index in presence of amoxicillin
Staphylococcus aureus [3] = experiment: Antibacterial activity against methicillin-resistant Staphylococcus aureus ATCC 33592 assessed as reduction in bacterial growth measured for 24 hrs by CLSI protocol based two-fold serial dilution method
Staphylococcus aureus [4] = experiment: Synergistic antibacterial activity against methicillin-resistant Staphylococcus aureus assessed as fractional inhibitory concentration index incubated for 24 hrs in presence of Nafcillin by checkerboard assay
Staphylococcus aureus [5] = experiment: Synergistic antibacterial activity against methicillin-resistant Staphylococcus aureus assessed as fractional inhibitory concentration index incubated for 24 hrs in presence of cefazolin by checkerboard assay
Staphylococcus aureus [6] = experiment: Synergistic antimicrobial activity against methicillin resistant Staphylococcus aureus assessed as fractional inhibitory concentration index incubated for 24 hrs in presence of Oxacillin by checkerboard assay

For `CC1(C)CCC2=C(O1)c1ccccc1C(=O)C2=O` [LAPACHONE], the “fractional inhibitory concentration index (FICI)” value (Staphylococcus aureus [1]) was 0.25 and the “fractional inhibitory concentration index (FICI)” value (Staphylococcus aureus [2]) was 0.07.
Compound `Oc1cc(O)c2c(c1)O[C@H](c1ccc(O)c(O)c1)[C@@H](O)C2` [CIANIDANOL] has an MIC (Staphylococcus aureus [3]) greater than 1020 mg/L.
For `Cc1cc(O)c2c(=O)c3c(O)cc(O)c4c5c(O)cc(O)c6c(=O)c7c(O)cc(C)c8c1c2c(c34)c(c78)c65` [HYPERICIN], the “fractional inhibitory concentration index (FICI)” value (Staphylococcus aureus [4]) was 0.19, the “fractional inhibitory concentration index (FICI)” value (Staphylococcus aureus [5]) was 0.19 and the “fractional inhibitory concentration index (FICI)” value (Staphylococcus aureus [6]) was 0.1.
